The results in this text go back to PMC5871718 (Cell, 2018).

Each structure is given as a SMILES string.

The target of assay [1] is T1, NUDT1 (Homo sapiens, UniProt P36639).
T1 construct: endogenous protein in THP-1 cells, identified by mass spectrometry
The experiment in a line: 2D thermal proteome profiling (TMT mass spectrometry). It is filed as cell-based. The settings on record: intact THP-1 cells, […] min, […] °C; stabilization.

For assay [2], the target named is T2, BRD3 (Homo sapiens, UniProt Q15059).
T2 construct: endogenous full-length protein in THP-1 cells or lysate, identified by mass spectrometry
The assay is described as above. It is filed as cell-based. The following applies: intact THP-1 cells, […] min, […] °C; stabilization.

Assay [3] addresses T3, FYTTD1 (Homo sapiens, UniProt Q96QD9).
T3 sequence (Q96QD9 1-318): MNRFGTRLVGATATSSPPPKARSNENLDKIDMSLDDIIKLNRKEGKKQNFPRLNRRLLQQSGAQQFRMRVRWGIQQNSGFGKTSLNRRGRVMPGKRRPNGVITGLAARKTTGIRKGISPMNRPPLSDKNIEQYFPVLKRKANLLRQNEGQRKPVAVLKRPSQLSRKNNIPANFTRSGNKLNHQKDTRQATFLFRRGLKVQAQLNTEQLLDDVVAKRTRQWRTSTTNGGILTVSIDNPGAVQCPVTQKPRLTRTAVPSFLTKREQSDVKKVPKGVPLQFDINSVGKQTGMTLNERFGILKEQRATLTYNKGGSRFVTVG
The assay is described as above. Also noted: endogenous protein in THP-1 cells, identified by mass spectrometry. The settings on record: intact THP-1 cells, […] min, […] °C; destabilization; text value approximate. It is filed as cell-based. An excerpt:
2D thermal proteome profiling (TMT mass spectrometry) on FYTTD1 | JQ1 further caused dose-dependent destabilization of FYTTD1

For assay [4], the target named is T4, SOAT1 (Homo sapiens, UniProt P35610).
T4 construct: endogenous full-length protein in THP-1 cells, identified by mass spectrometry
T4 sequence (P35610 1-550): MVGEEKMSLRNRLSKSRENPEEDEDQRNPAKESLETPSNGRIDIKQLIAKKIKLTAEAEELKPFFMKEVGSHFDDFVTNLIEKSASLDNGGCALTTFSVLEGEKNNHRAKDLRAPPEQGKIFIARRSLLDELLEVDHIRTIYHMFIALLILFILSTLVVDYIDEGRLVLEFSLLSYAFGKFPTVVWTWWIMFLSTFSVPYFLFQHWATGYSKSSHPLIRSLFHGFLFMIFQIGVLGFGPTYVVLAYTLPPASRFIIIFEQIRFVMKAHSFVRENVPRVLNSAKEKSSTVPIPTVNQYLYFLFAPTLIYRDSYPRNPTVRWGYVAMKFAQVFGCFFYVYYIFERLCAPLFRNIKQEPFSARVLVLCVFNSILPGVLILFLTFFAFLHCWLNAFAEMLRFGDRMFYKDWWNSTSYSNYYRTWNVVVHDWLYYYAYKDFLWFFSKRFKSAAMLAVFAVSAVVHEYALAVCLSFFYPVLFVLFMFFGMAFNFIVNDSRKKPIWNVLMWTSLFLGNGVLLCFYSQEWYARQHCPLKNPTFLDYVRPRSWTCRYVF
The assay is described as above. It is filed as cell-based. The settings on record: intact THP-1 cells, […] min, […] °C; stabilization; text value approximate. The text has this: 2D thermal proteome profiling (TMT mass spectrometry) on SOAT1 | stabilized SOAT1 and several members of the sterol biosynthesis pathway

The target in assay [5] is T3, FYTTD1. The experiment in a line: thermal shift of spiked recombinant protein, mass spectrometry read-out. It is filed as binding. On the set-up: commercial recombinant protein (Abcam ab164533). The following applies: […] JQ1, […] protein in background of recombinant protein domains, […] HEPES pH […] NaCl, […] glycerol, […] Tween20; destabilization.

T2 sequence (Q15059 2-726): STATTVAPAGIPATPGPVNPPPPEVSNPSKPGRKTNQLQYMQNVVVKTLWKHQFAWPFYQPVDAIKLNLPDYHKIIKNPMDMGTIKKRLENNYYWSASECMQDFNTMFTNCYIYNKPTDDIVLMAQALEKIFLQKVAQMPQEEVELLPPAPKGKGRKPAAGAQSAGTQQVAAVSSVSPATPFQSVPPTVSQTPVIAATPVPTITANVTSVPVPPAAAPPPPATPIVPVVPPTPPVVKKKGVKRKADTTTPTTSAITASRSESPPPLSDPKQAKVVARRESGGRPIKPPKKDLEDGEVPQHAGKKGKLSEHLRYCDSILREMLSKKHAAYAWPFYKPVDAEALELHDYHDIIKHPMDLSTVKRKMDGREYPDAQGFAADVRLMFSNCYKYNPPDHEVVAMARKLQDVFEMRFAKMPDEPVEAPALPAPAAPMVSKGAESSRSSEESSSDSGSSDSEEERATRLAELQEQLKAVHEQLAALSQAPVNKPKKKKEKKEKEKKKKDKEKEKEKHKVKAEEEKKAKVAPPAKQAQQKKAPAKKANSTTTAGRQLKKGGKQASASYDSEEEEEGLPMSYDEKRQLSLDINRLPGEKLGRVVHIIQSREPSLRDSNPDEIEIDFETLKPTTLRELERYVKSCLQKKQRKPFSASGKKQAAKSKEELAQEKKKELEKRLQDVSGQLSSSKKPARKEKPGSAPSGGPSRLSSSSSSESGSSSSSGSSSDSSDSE

As a reminder, the pEC50 is the negative decadic logarithm of the EC50, by convention in mol/L. Regarding `COc1cc2c(cc1-c1c(C)noc1C)ncc1[nH]c(=O)n([C@H](C)c3ccccn3)c12` [I-BET151, 7-(3,5-dimethylisoxazol-4-yl)-8-methoxy-1-((R)-1-(pyridin-2-yl)ethyl)-1H-imidazo[4,5-c]quinolin-2(3H)-one], the results for the negative-log EC50 (pEC50) in assay [1] and in assay [2] were 5.3 and 5.9, respectively.

One may read the EC50 as the concentration giving half of the maximal effect. The low end stands for a more potent agent, the high end for a less potent agent. On to `Cc1sc2c(c1C)C(c1ccc(Cl)cc1)=N[C@@H](CC(=O)OC(C)(C)C)c1nnc(C)n1-2` [JQ1], for which the EC50 in assay [3] and in assay [4] was approximately 1000 nM throughout. In addition, the thermal shift entry in assay [5] is on record as “Thermal shift assays with recombinantly expressed FYTTD1 confirmed destabilization by JQ1 binding”.
